{
  "source": "patent US10266560B2",
  "about": "“Bile acid analogs as FXR/TGR5 agonists and methods of use thereof” (Enanta Pharmaceuticals, Inc., priority 2014, dated 2019)",
  "biological_target": "Human FXR (NR1H4) (Homo sapiens (Human), UniProt Q96RI1)",
  "sequence (Q96RI1 whole entry, the tested form may be a part)": "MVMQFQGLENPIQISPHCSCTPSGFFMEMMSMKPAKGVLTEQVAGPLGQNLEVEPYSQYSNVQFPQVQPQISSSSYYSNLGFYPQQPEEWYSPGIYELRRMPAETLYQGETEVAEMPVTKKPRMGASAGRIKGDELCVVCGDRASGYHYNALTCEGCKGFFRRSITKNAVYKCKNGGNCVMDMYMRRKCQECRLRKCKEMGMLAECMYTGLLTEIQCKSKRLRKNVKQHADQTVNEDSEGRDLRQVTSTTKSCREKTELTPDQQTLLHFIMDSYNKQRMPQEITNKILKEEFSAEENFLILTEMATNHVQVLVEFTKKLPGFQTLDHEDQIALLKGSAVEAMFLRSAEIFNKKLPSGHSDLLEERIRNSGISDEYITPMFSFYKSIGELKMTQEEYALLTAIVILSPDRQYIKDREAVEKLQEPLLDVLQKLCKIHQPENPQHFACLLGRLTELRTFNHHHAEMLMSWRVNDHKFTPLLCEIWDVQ",
  "experiment": "Human FXR (NR1H4) Assay (Gal4 promoter driven luciferase reporter transactivation in CHO cells)",
  "assay_type": "cell-based",
  "description": "Assays Human FXR (NR1H4) Assay\nDetermination of a ligand mediated Gal4 promoter driven transactivation to quantify ligand binding mediated activation of FXR. FXR Reporter Assay kit purchased from Indigo Bioscience (Catalogue number: IB00601) to determine the potency and efficacy of compound developed by Enanta that can induce FXR activation. The principle application of this reporter assay system is to quantify functional activity of human FXR. The assay utilizes non-human mammalian cells, CHO (Chinese hamster ovary) cells engineered to express human NR1H4 protein (referred to as FXR). Reporter cells also incorporate the cDNA encoding beetle luciferase which catalyzes the substrates and yields photon emission. Luminescence intensity of the reaction is quantified using a plate-reading luminometer, Envision. Reporter Cells include the luciferase reporter gene functionally linked to an FXR responsive promoter. Thus, quantifying changes in luciferase expression in the treated reporter cells provides a sensitive surrogate measure of the changes in FXR activity. […] The assay is according to the manufacturer's instructions. In brief, the assay was performed in white, 96 well plates using final volume of 200 ul containing cells with different doses of compounds. Retrieve Reporter Cells from −80° C. storage. Perform a rapid thaw of the frozen cells by transferring a 10 ml volume of 37° C. cell recovery medium into the tube of frozen cells. Recap the tube of Reporter Cells and immediately place it in a 37° C. water bath for 5-10 minutes. Retrieve the tube of Reporter Cell Suspension from the water bath. Sanitize the outside surface of the tube with a 70% alcohol swab, and then transfer it into the cell culture hood. Dispense 100 μl of cell suspension into each well of the 96-well Assay Plate. Transfer the plate into 37° C. incubator, allowing the cells adherent to the bottom of the well. Dilute compounds in Dilution Plate (DP), and administrate to cells at Assay Plate (AP). DMSO content of the samples was kept at 0.2%. Cells were incubated for additional 22 hours before luciferase activities were measured. Thirty minutes before intending to quantify FXR activity, remove Detection Substrate and Detection Buffer from the refrigerator and place them in a low-light area so that they may equilibrate to room temperature. Remove the plate's lid and discard all media contents by ejecting it into an appropriate waste container. Gently tap the inverted plate onto a clean absorbent paper towel to remove residual droplets. Cells will remain tightly adhered to well bottoms. Add 100 μl of luciferase detection reagent to each well of the assay plate. Allow the assay plate to rest at room temperature for at least 5 minutes following the addition of LDR. Set the instrument (Envision) to perform a single 5 second “plate shake” prior to reading the first assay well. Read time may be 0.5 second (500 mSec) per well.",
  "key": {"[1]": {"details": "FXR agonistic potency range; CHO reporter cells expressing human NR1H4, 22 hours incubation; read-out: EC50"}},
  "note": "pEC50: −log10 of the molar value. Where two headings read alike, the source gives them in different places.",
  "data": [
    {"smiles": "CC[C@@H]1C2C[C@H](O)CCC2(C)[C@H]2CCC3(C)C([C@H](C)CCC(=O)NS(=O)(=O)c4cccc(OC(F)(F)F)c4)CC[C@H]3[C@@H]2[C@@H]1O", "note": "(stereo partly shown) [Example 471]", "values": [
      {"measurement": "Emax", "setting": "CHO, read-out: Efficacy (%)", "value": 467, "unit": "%"},
      {"measurement": "pEC50", "setting": "[1]", "value": "> 7.00"}
    ]},
    {"smiles": "CC[C@@H]1C2C[C@H](O)CCC2(C)[C@H]2CCC3(C)C([C@H](C)CCC(=O)NS(=O)(=O)c4ccc5ccccc5c4)CC[C@H]3[C@@H]2[C@@H]1O", "note": "(stereo partly shown) [Example 472]", "values": [
      {"measurement": "Emax", "setting": "CHO, read-out: Efficacy (%)", "value": 580, "unit": "%"},
      {"measurement": "pEC50", "setting": "[1]", "value": "> 7.00"}
    ]},
    {"smiles": "CC[C@@H]1C2C[C@H](O)CCC2(C)[C@H]2CCC3(C)C([C@H](C)CCC(=O)NS(=O)(=O)c4ccc(OC(F)(F)F)cc4)CC[C@H]3[C@@H]2[C@@H]1O", "note": "(stereo partly shown) [Example 473]", "values": [
      {"measurement": "Emax", "setting": "CHO, read-out: Efficacy (%)", "value": 606, "unit": "%"},
      {"measurement": "pEC50", "setting": "[1]", "value": "> 7.00"}
    ]},
    {"smiles": "CC[C@@H]1C2C[C@H](O)CCC2(C)[C@H]2CCC3(C)C([C@H](C)CCC(=O)NS(=O)(=O)c4nccs4)CC[C@H]3[C@@H]2[C@@H]1O", "note": "(stereo partly shown) [Example 474]", "values": [
      {"measurement": "Emax", "setting": "CHO; read-out: Efficacy (%)", "value": 463, "unit": "%"},
      {"measurement": "pEC50", "setting": "read-out: EC50", "value": "5.00 to 6.00"}
    ]},
    {"smiles": "CC[C@@H]1C2C[C@H](O)CCC2(C)[C@H]2CCC3(C)C([C@H](C)CCC(=O)NS(=O)(=O)c4ccc(C(F)(F)F)cc4)CC[C@H]3[C@@H]2[C@@H]1O", "note": "(stereo partly shown) [Example 475]", "values": [
      {"measurement": "Emax", "setting": "CHO, read-out: Efficacy (%)", "value": 590, "unit": "%"},
      {"measurement": "pEC50", "setting": "[1]", "value": "> 7.00"}
    ]},
    {"smiles": "CC[C@@H]1C2C[C@H](O)CCC2(C)[C@H]2CCC3(C)C([C@H](C)CCC(=O)NS(=O)(=O)c4ccc(OC)c(F)c4)CC[C@H]3[C@@H]2[C@@H]1O", "note": "(stereo partly shown) [Example 476]", "values": [
      {"measurement": "Emax", "setting": "CHO, read-out: Efficacy (%)", "value": 593, "unit": "%"},
      {"measurement": "pEC50", "setting": "[1]", "value": "> 7.00"}
    ]},
    {"smiles": "CC[C@@H]1C2C[C@H](O)CCC2(C)[C@H]2CCC3(C)C([C@H](C)CCC(=O)NS(=O)(=O)c4cccc(OC)c4)CC[C@H]3[C@@H]2[C@@H]1O", "note": "(stereo partly shown) [Example 477]", "values": [
      {"measurement": "Emax", "setting": "CHO, read-out: Efficacy (%)", "value": 596, "unit": "%"},
      {"measurement": "pEC50", "setting": "[1]", "value": "> 7.00"}
    ]},
    {"smiles": "CC[C@@H]1C2C[C@H](O)CCC2(C)[C@H]2CCC3(C)C([C@H](C)CCC(=O)NS(=O)(=O)c4ccc(OC)c(OC)c4)CC[C@H]3[C@@H]2[C@@H]1O", "note": "(stereo partly shown) [Example 478]", "values": [
      {"measurement": "Emax", "setting": "CHO; read-out: Efficacy (%)", "value": 589, "unit": "%"},
      {"measurement": "pEC50", "setting": "read-out: EC50", "value": "6.00 to 7.00"}
    ]},
    {"smiles": "CC[C@@H]1C2C[C@H](O)CCC2(C)[C@H]2CCC3(C)C([C@H](C)CCC(=O)NS(=O)(=O)c4cccc(Cl)c4)CC[C@H]3[C@@H]2[C@@H]1O", "note": "(stereo partly shown) [Example 479]", "values": [
      {"measurement": "Emax", "setting": "CHO, read-out: Efficacy (%)", "value": 572, "unit": "%"},
      {"measurement": "pEC50", "setting": "[1]", "value": "> 7.00"}
    ]},
    {"smiles": "CC[C@@H]1C2C[C@H](O)CCC2(C)[C@H]2CCC3(C)C([C@H](C)CCC(=O)NS(=O)(=O)c4ccc(Cl)cc4)CC[C@H]3[C@@H]2[C@@H]1O", "note": "(stereo partly shown) [Example 480]", "values": [
      {"measurement": "Emax", "setting": "CHO, read-out: Efficacy (%)", "value": 346, "unit": "%"},
      {"measurement": "pEC50", "setting": "[1]", "value": "> 7.00"}
    ]},
    {"smiles": "CC[C@@H]1C2C[C@H](O)CCC2(C)[C@H]2CCC3(C)C([C@H](C)CCC(=O)NS(=O)(=O)c4ccc5c(c4)OCO5)CC[C@H]3[C@@H]2[C@@H]1O", "note": "(stereo partly shown) [Example 481]", "values": [
      {"measurement": "Emax", "setting": "CHO, read-out: Efficacy (%)", "value": 359, "unit": "%"},
      {"measurement": "pEC50", "setting": "[1]", "value": "> 7.00"}
    ]},
    {"smiles": "CC[C@@H]1C2C[C@H](O)CCC2(C)[C@H]2CCC3(C)C([C@H](C)CCC(=O)NS(=O)(=O)C4CCCC4)CC[C@H]3[C@@H]2[C@@H]1O", "note": "(stereo partly shown) [Example 482]", "values": [
      {"measurement": "Emax", "setting": "CHO, read-out: Efficacy (%)", "value": 342, "unit": "%"},
      {"measurement": "pEC50", "setting": "[1]", "value": "> 7.00"}
    ]},
    {"smiles": "CC[C@@H]1C2C[C@H](O)CCC2(C)[C@H]2CCC3(C)C([C@H](C)CCC(=O)NS(=O)(=O)c4cccc5ccccc45)CC[C@H]3[C@@H]2[C@@H]1O", "note": "(stereo partly shown) [Example 483]", "values": [
      {"measurement": "Emax", "setting": "CHO, read-out: Efficacy (%)", "value": 308, "unit": "%"},
      {"measurement": "pEC50", "setting": "[1]", "value": "> 7.00"}
    ]},
    {"smiles": "CC[C@@H]1C2C[C@H](O)CCC2(C)[C@H]2CCC3(C)C([C@H](C)CCC(=O)NS(=O)(=O)c4ccc(C(C)(C)C)cc4)CC[C@H]3[C@@H]2[C@@H]1O", "note": "(stereo partly shown) [Example 484]", "values": [
      {"measurement": "Emax", "setting": "CHO, read-out: Efficacy (%)", "value": 349, "unit": "%"},
      {"measurement": "pEC50", "setting": "[1]", "value": "> 7.00"}
    ]},
    {"smiles": "CC[C@H]1[C@@H](O)[C@@H]2[C@H](CC[C@]3(C)[C@@H]([C@H](C)C[C@@H](C)C(=O)NS(=O)(=O)c4ccc(C(C)(C)C)cc4)CC[C@@H]23)[C@@]2(C)CC[C@@H](O)C[C@@H]12", "note": "[Example 485]", "values": [
      {"measurement": "Emax", "setting": "CHO; read-out: Efficacy (%)", "value": 185, "unit": "%"},
      {"measurement": "pEC50", "setting": "read-out: EC50", "value": "6.00 to 7.00"}
    ]},
    {"smiles": "CC[C@H]1[C@@H](O)[C@@H]2[C@H](CC[C@]3(C)[C@@H]([C@H](C)C[C@@H](C)C(=O)NS(=O)(=O)C4CC4)CC[C@@H]23)[C@@]2(C)CC[C@@H](O)C[C@@H]12", "note": "[Example 486]", "values": [
      {"measurement": "Emax", "setting": "CHO; read-out: Efficacy (%)", "value": 387, "unit": "%"},
      {"measurement": "pEC50", "setting": "read-out: EC50", "value": "6.00 to 7.00"}
    ]},
    {"smiles": "CC[C@H]1[C@@H](O)[C@@H]2[C@H](CC[C@]3(C)[C@@H]([C@H](C)C[C@@H](C)C(=O)NS(=O)(=O)c4ccc(OC(F)(F)F)cc4)CC[C@@H]23)[C@@]2(C)CC[C@@H](O)C[C@@H]12", "note": "[Example 487]", "values": [
      {"measurement": "Emax", "setting": "CHO, read-out: Efficacy (%)", "value": 287, "unit": "%"},
      {"measurement": "pEC50", "setting": "[1]", "value": "> 7.00"}
    ]}
  ]
}
